Measurements taken from ChEMBL document CHEMBL1201862, “PubChem BioAssay data set” (2004).
Where “and” joins values, the source holds several entries; their conditions need not be identical. Equal entries are not always repeated.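 Five concentrations, 48 hours, 96-well plates. GI50 = concentration required for 50% inhibition of growth.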 Calls of active or inactive are those of the source. Cut-off read from the data, not from the text of the source: active = GI50 up to about 1.1 µM and inactive = higher.

Experiments:
Test in all cases: NCI tumour cell line growth inhibition, 48 h
NCI-H23 = tested on: NCI-H23
IGROV-1 = tested on: IGROV-1
HT-29 = tested on: HT-29
786-0 = tested on: 786-0
MDA-N = tested on: MDA-N
OVCAR-4 = tested on: OVCAR-4
HCT-116 = tested on: HCT-116
SK-MEL-2 = tested on: SK-MEL-2
DLD-1 = tested on: DLD-1
NCI-H226 = tested on: NCI-H226
RXF 393 = tested on: RXF 393
KM12 = tested on: KM12
Hs-578T = tested on: Hs-578T
Malme-3M = tested on: Malme-3M
SW-620 = tested on: SW-620
RPMI-8226 = tested on: RPMI-8226
UACC-257 = tested on: UACC-257
SF-295 = tested on: SF-295
ACHN = tested on: ACHN
OVCAR-5 = tested on: OVCAR-5

Measured: GI50

O=S1(=O)NN=C(NCc2ccc(F)cc2)c2ccccc21
inactive: NCI-H23 > 100 µM | IGROV-1 > 72.4 µM | HT-29 > 63.1 µM | 786-0 > 50.9 µM | MDA-N > 100 µM | OVCAR-4 > 48 µM | HCT-116 > 100 µM | SK-MEL-2 > 100 µM | DLD-1 58.5 µM | NCI-H226 > 100 µM | RXF 393 34.9 µM | KM12 > 100 µM | Hs-578T 17.5 µM | Malme-3M > 89.3 µM | SW-620 > 79.3 µM | RPMI-8226 > 40.7 µM | UACC-257 69.2 µM | SF-295 > 71.9 µM | ACHN 95.5 µM | OVCAR-5 > 100 µM

O=[N+]([O-])c1ccccc1S(=O)(=O)c1ccccc1[N+](=O)[O-]
inactive: NCI-H23 74.5 µM | IGROV-1 > 84.7 µM | HT-29 > 100 µM | 786-0 64.6 µM | MDA-N > 100 µM | OVCAR-4 > 100 µM | HCT-116 > 100 µM | SK-MEL-2 > 100 µM | DLD-1 > 100 µM | NCI-H226 > 79.3 µM | RXF 393 39.5 µM | KM12 > 72.3 µM | Hs-578T 32.4 µM | Malme-3M > 100 µM | SW-620 > 56.2 µM | RPMI-8226 > 92.7 µM | UACC-257 > 100 µM | SF-295 36.9 µM | ACHN > 90.8 µM | OVCAR-5 > 10 µM

CN=[S+]([O-])(c1ccccc1)c1ccccc1
inactive: NCI-H23 > 100 µM | IGROV-1 > 100 µM | HT-29 > 100 µM | 786-0 > 100 µM | OVCAR-4 > 100 µM | HCT-116 > 100 µM | SK-MEL-2 > 100 µM | DLD-1 > 100 µM | NCI-H226 > 100 µM | RXF 393 > 100 µM | KM12 > 100 µM | Malme-3M > 100 µM | SW-620 > 100 µM | RPMI-8226 > 100 µM | UACC-257 > 100 µM | SF-295 > 100 µM | ACHN > 100 µM | OVCAR-5 > 100 µM

NC(=S)N/N=C(\CCC(=O)Nc1ccccc1[N+](=O)[O-])CC(=O)c1ccco1
inactive: NCI-H23 > 100 µM | IGROV-1 > 100 µM | HT-29 > 100 µM | 786-0 > 100 µM | OVCAR-4 > 100 µM | HCT-116 > 100 µM | SK-MEL-2 > 100 µM | DLD-1 > 100 µM | NCI-H226 > 100 µM | RXF 393 > 100 µM | KM12 > 100 µM | Malme-3M > 100 µM | SW-620 > 100 µM | RPMI-8226 > 100 µM | UACC-257 > 100 µM | SF-295 > 100 µM | ACHN > 100 µM | OVCAR-5 > 100 µM

NC1=NC2=c3ccccc3=C(c3cnccn3)C2(c2cnccn2)c2ccccc21 (stereo unspecified)
inactive: NCI-H23 91.4 µM | IGROV-1 > 100 µM | HT-29 89.5 µM | 786-0 > 100 µM | OVCAR-4 42.4 µM | HCT-116 76.9 µM | SK-MEL-2 > 100 µM | DLD-1 > 100 µM | NCI-H226 34.7 µM | RXF 393 > 100 µM | KM12 81.8 µM | Malme-3M 49.9 µM | SW-620 > 100 µM | RPMI-8226 58.7 µM | UACC-257 37.1 µM | SF-295 42.2 µM | ACHN 64.4 µM | OVCAR-5 > 100 µM

CCOC(=O)N1Cc2ccoc2C1
inactive: NCI-H23 > 100 µM | IGROV-1 > 100 µM | HT-29 > 100 µM | 786-0 > 100 µM | OVCAR-4 > 100 µM | HCT-116 > 100 µM | SK-MEL-2 > 100 µM | DLD-1 > 100 µM | NCI-H226 > 100 µM | RXF 393 > 100 µM | KM12 > 100 µM | Malme-3M > 100 µM | SW-620 > 100 µM | RPMI-8226 > 100 µM | UACC-257 > 100 µM | SF-295 > 100 µM | ACHN > 100 µM | OVCAR-5 > 100 µM

O=C(N/N=C1\C(=O)N(c2nccs2)C(=O)C(=O)C1c1nc2ccccc2s1)c1ccccc1O (stereo unspecified)
inactive: NCI-H23 29.5 µM | IGROV-1 25.9 µM | HT-29 > 100 µM | 786-0 > 100 µM | OVCAR-4 39.8 µM | HCT-116 29.9 µM | SK-MEL-2 > 100 µM | DLD-1 71.1 µM | NCI-H226 71.1 µM | RXF 393 21.1 µM | KM12 54.5 µM | Malme-3M > 100 µM | SW-620 47.9 µM | RPMI-8226 61.4 µM | UACC-257 35.7 µM | SF-295 47.5 µM | ACHN 28.6 µM | OVCAR-5 > 100 µM

Cc1nc2c(nc1C)C(=O)C1=C(C2=O)C2C=CC1CC2
inactive: NCI-H23 4.04 µM | IGROV-1 2.63 µM | HT-29 13.9 µM | 786-0 11.9 µM | OVCAR-4 1.93 µM | HCT-116 1.54 µM | SK-MEL-2 13.2 µM | DLD-1 7.53 µM | NCI-H226 14.5 µM | RXF 393 6.79 µM | KM12 13.5 µM | Malme-3M 11.8 µM | SW-620 2.74 µM | RPMI-8226 2.17 µM | UACC-257 4.31 µM | SF-295 11.7 µM | ACHN 11.7 µM | OVCAR-5 21.3 µM

N#C/C(=C\c1ccc(O)cc1)C(N)=O
inactive: NCI-H23 > 100 µM | IGROV-1 > 100 µM | HT-29 > 100 µM | 786-0 > 100 µM | OVCAR-4 > 100 µM | HCT-116 > 100 µM | SK-MEL-2 > 100 µM | DLD-1 > 100 µM | NCI-H226 > 100 µM and 69.7 µM | RXF 393 77.3 µM | KM12 > 100 µM and > 74.6 µM | Malme-3M > 100 µM | SW-620 > 100 µM | RPMI-8226 > 100 µM | UACC-257 > 100 µM | SF-295 > 100 µM | ACHN > 100 µM | OVCAR-5 > 100 µM

CCCc1cc(-c2ccc(-c3cc(CCC)c(C=O)[nH]3)s2)[nH]c1C=O
inactive: NCI-H23 > 37.1 µM | IGROV-1 > 100 µM | HT-29 2.18 µM | 786-0 14.4 µM | MDA-N 4.34 µM | OVCAR-4 47.4 µM | HCT-116 21.8 µM | SK-MEL-2 22 µM | DLD-1 44.5 µM | NCI-H226 > 100 µM | RXF 393 30.1 µM | KM12 > 27.9 µM | Hs-578T 41.2 µM | Malme-3M 21.2 µM | SW-620 > 55.8 µM | RPMI-8226 > 100 µM | UACC-257 > 100 µM | SF-295 11.9 µM | ACHN > 26.7 µM | OVCAR-5 15.1 µM
